From the supplement of paper PMC10307832 come the findings set out here.

Holding throughout (assay): relative viability (nuclei count vs DMSO), 5 days (fraction); higher = more cells survive
Compound in test [1]: C1COCCN1CC2=CC(=O)C(=CO2)OCCCCCSC3=C4C=CC(=CC4=NC=C3)C(F)(F)F [EHT 1864] + Cc1nc(NC(=O)N2CCC[C@H]2C(N)=O)sc1-c1ccnc(C(C)(C)C(F)(F)F)c1 [Alpelisib] (partner 2 µM)
The method in brief:
(§1)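 One day after seeding in 1536-well plates, lung cancer cell lines were dosed by pin tool. Dosing was either single-drug or a fixed anchor-drug dose plus five library-drug doses (not always all listed) in √10 steps. After 5 days, nuclei were stained in one fix-and-stain step and counted on 4× images, and relative viability is the nuclei count of treated wells over that of vehicle wells, given as the median of duplicate plates.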

Compound in test [2]: C1COCCN1CC2=CC(=O)C(=CO2)OCCCCCSC3=C4C=CC(=CC4=NC=C3)C(F)(F)F [EHT 1864] + CC(=O)c1c(C)c2cnc(Nc3ccc(N4CCNCC4)cn3)nc2n(C2CCCC2)c1=O [Palbociclib] (partner 0.5 µM)
The method in brief:
as §1

Compound in test [3]: C1COCCN1CC2=CC(=O)C(=CO2)OCCCCCSC3=C4C=CC(=CC4=NC=C3)C(F)(F)F [EHT 1864] + Cc1nc(Nc2ncc(C(=O)Nc3c(C)cccc3Cl)s2)cc(N2CCN(CCO)CC2)n1 [Dasatinib] (partner 0.075 µM)
The method in brief: as §1

Compound in test [4]: C1COCCN1CC2=CC(=O)C(=CO2)OCCCCCSC3=C4C=CC(=CC4=NC=C3)C(F)(F)F [EHT 1864] + CC(C)C[C@H](NC(=O)[C@H](Cc1ccccc1)NC(=O)c1cnccn1)B(O)O [Bortezomib] (partner 0.002 µM)
The method in brief: as §1

In the case of NCI-H2126, the relative viability in test [1] (first compound 0.04 µM) is 0.755; in test [1] (first compound 0.1265 µM), 0.757; in test [1] (first compound 0.4 µM) it was 0.718; in test [1] (first compound 1.265 µM), 0.801; in test [1] (first compound 4 µM) it was 0.748; in test [2] (first compound 0.04 µM), 0.338. The relative viability in test [2] (first compound 0.1265 µM) turned out to be 0.365; in test [2] (first compound 0.4 µM) it was 0.333; in test [2] (first compound 1.265 µM) it was 0.336; in test [2] (first compound 4 µM), 0.349; in test [3] (first compound 0.04 µM), 0.604; in test [3] (first compound 0.1265 µM), 0.574. The relative viability in test [3] (first compound 0.4 µM) was 0.649; in test [3] (first compound 1.265 µM), 0.484; in test [3] (first compound 4 µM) it was 0.545; in test [4] (first compound 0.04 µM), 1.16; in test [4] (first compound 0.1265 µM), 1.1; in test [4] (first compound 0.4 µM), 1.11. Besides, the values for the relative viability in test [4] (first compound 1.265 µM) and in test [4] (first compound 4 µM) were 1.09 and 1, respectively.
Consider HCC-827, for which the relative viability was 0.981 in test [1] (first compound 0.04 µM); 0.887 in test [1] (first compound 0.1265 µM); 0.958 in test [1] (first compound 0.4 µM); 0.953 in test [1] (first compound 1.265 µM); 0.891 in test [1] (first compound 4 µM); 0.57 in test [2] (first compound 0.04 µM). The relative viability in test [2] (first compound 0.1265 µM) was 0.498; in test [2] (first compound 0.4 µM) it was 0.508; in test [2] (first compound 1.265 µM), 0.473; in test [2] (first compound 4 µM), 0.386; in test [3] (first compound 0.04 µM) it was 0.358; in test [3] (first compound 0.1265 µM), 0.328. The relative viability amounted to 0.268 in test [3] (first compound 0.4 µM); 0.248 in test [3] (first compound 1.265 µM); 0.269 in test [3] (first compound 4 µM); 1.1 in test [4] (first compound 0.04 µM); 0.844 in test [4] (first compound 0.1265 µM); 0.999 in test [4] (first compound 0.4 µM). Besides, the relative viability in test [4] (first compound 1.265 µM) was determined as 1.11; in test [4] (first compound 4 µM), 0.985.
For NCI-H3122, the relative viability in test [1] (first compound 0.04 µM) worked out at 0.869; in test [1] (first compound 0.1265 µM), 0.751; in test [1] (first compound 0.4 µM), 0.774; in test [1] (first compound 1.265 µM), 0.732; in test [1] (first compound 4 µM), 0.766; in test [2] (first compound 0.04 µM) it was 0.172. For the same cell line, the relative viability was determined as 0.21 in test [2] (first compound 0.1265 µM); 0.211 in test [2] (first compound 0.4 µM); 0.203 in test [2] (first compound 1.265 µM); 0.201 in test [2] (first compound 4 µM); 0.809 in test [3] (first compound 0.04 µM); 0.285 in test [3] (first compound 0.1265 µM). Besides, the relative viability in test [3] (first compound 0.4 µM) is 0.667; in test [3] (first compound 1.265 µM), 0.817; in test [3] (first compound 4 µM), 0.885; in test [4] (first compound 0.04 µM), 1.03; in test [4] (first compound 0.1265 µM) it was 0.973; in test [4] (first compound 0.4 µM), 0.96. Besides, the relative viability in test [4] (first compound 1.265 µM) stood at 0.99; in test [4] (first compound 4 µM), 0.965.
For HOP-62, the relative viability in test [1] (first compound 0.04 µM) amounted to 1.03; in test [1] (first compound 0.4 µM), 0.838; in test [1] (first compound 1.265 µM), 0.796; in test [1] (first compound 4 µM) it was 0.884; in test [2] (first compound 0.04 µM), 0.453; in test [2] (first compound 0.4 µM) it was 0.516. For the same cell line, the relative viability in test [2] (first compound 1.265 µM) is 0.438; in test [2] (first compound 4 µM), 0.425; in test [3] (first compound 0.04 µM) it was 0.561; in test [3] (first compound 0.4 µM), 0.74; in test [3] (first compound 1.265 µM) it was 0.589; in test [3] (first compound 4 µM), 0.84. Moreover, the relative viability in test [4] (first compound 0.04 µM) was found to be 1.18; in test [4] (first compound 0.4 µM) it was 0.618; in test [4] (first compound 1.265 µM), 1.08; in test [4] (first compound 4 µM) it was 0.986.
